# Laboratory results: patent publication US12116421B2, “Peptide-based Dopa containing adhesive gels” (KING ABDULLAH UNIVERSITY OF SCIENCE AND TECHNOLOGY, priority 2020, dated 2024)
# Where a SMILES comes first, the peptide text is derived from it. [ ]: non-standard residue; d: D form. Dopa = N[C@@H](Cc1ccc(O)c(O)c1)C(=O)O; Cha = N[C@@H](CC1CCCCC1)C(=O)O
# Test: Rheology of peptide hydrogels (storage and loss modulus)
# Assay type: physicochemical
# Conditions: 15 mg/mL in 1×PBS
# Procedure: In one embodiment, the structural characteristics of these peptides also influence the rheological properties of the peptides, such as stiffness. The stiffness of the peptide hydrogels was assessed by rheology measurements. The five peptides, DoIIZK, IIZDoK, IIZKDo, IIZ(KDo)2 and IIZ(KDo)3 were dispersed in phosphate-buffered saline (1×PBS) to final concentrations of […]. Only DoIIZK and IIZKDo formed transparent hydrogels after preparation of gels onto rheology glass rings; the rest of the peptides formed grey/opaque hydrogels. This difference implies that the fibrils of peptides DoIIZK and IIZKDo had sufficient time to disperse and spread in solution before entrapping water to gel, while peptides IIZDoK, IIZ(KDo)2 and IIZ(KDo)3 gelled quickly upon fibril formation. Therefore, the rheological properties of the peptides were measured at the concentration of 15 mg/ml. […] The storage modulus and loss modulus reflect the stress response of the hydrogel in oscillatory shear. […]
# Peptide hydrogels were prepared by weighing the appropriate peptide amount of the lyophilized peptide powder in 2 mL glass-vials. […] Rheological analysis mechanical properties of the formed gels were assessed by using the TA Ares-G2 Rheometer with an 8 mm titanium parallel-plate geometry. […] Time-sweep, frequency-sweep, and amplitude-sweep, were measured for each sample to explore the mechanical stiffness of the gels. […]
structure (smiles),measurement,setting,value
"CC[C@H](C)[C@H](NC(C)=O)C(=O)N[C@H](C(=O)N[C@@H](CC1CCCCC1)C(=O)N[C@@H](Cc1ccc(O)c(O)c1)C(=O)N[C@@H](CCCCN)C(N)=O)[C@@H](C)CC [IIZDoK, Ac-Ile-Ile-Cha-Dopa-Lys-NH2] (Ac-II[Cha][Dopa]K-NH2)","Storage and Loss moduli, times lower than DoIIZK and IIZKDo",,roughly 10 times
same,Storage modulus,25° C.,2-5 kPa
